Numbers after ± are expanded uncertainties.
Assay: excess molar enthalpy (molar enthalpy of mixing); xn = mol fraction of the nth substance listed
Conditions: 298.15 K, 101.33 kPa, Liquid

For `CCCCCCCCCCCCC#N` [dodecanecarbonitrile] + CSCS(C)=O, the excess molar enthalpy (x2 = 0.06513) was 0.323 ± 0.0066 kJ/mol, the excess molar enthalpy (x2 = 0.0823) was 0.433 ± 0.0083 kJ/mol and the excess molar enthalpy (x2 = 0.1316) was 0.629 ± 0.011 kJ/mol. The excess molar enthalpy (x2 = 0.2014) was 0.873 ± 0.015 kJ/mol, the excess molar enthalpy (x2 = 0.265) was 1.04 ± 0.018 kJ/mol and the excess molar enthalpy (x2 = 0.3508) was 1.18 ± 0.02 kJ/mol. It also gave an excess molar enthalpy (x2 = 0.367) of 1.21 ± 0.02 kJ/mol, an excess molar enthalpy (x2 = 0.4233) of 1.26 ± 0.021 kJ/mol and an excess molar enthalpy (x2 = 0.5443) of 1.28 ± 0.021 kJ/mol. For the same molecule, the excess molar enthalpy (x2 = 0.6344) was 1.23 ± 0.021 kJ/mol, the excess molar enthalpy (x2 = 0.7341) was 1.11 ± 0.019 kJ/mol and the excess molar enthalpy (x2 = 0.7878) was 0.992 ± 0.017 kJ/mol. For the same molecule, the excess molar enthalpy (x2 = 0.8039) was 0.948 ± 0.016 kJ/mol, the excess molar enthalpy (x2 = 0.9082) was 0.578 ± 0.011 kJ/mol and the excess molar enthalpy (x2 = 0.9683) was 0.246 ± 0.0054 kJ/mol. It also gave an excess molar enthalpy (x2 = 0.9847) of 0.123 ± 0.0034 kJ/mol.

For `CCCCCCCCCCCCC#N` [dodecanecarbonitrile] + C[S+](C)[O-], the excess molar enthalpy (x2 = 0.02177) was 0.0825 ± 0.0028 kJ/mol, the excess molar enthalpy (x2 = 0.06754) was 0.286 ± 0.006 kJ/mol and the excess molar enthalpy (x2 = 0.09519) was 0.398 ± 0.0077 kJ/mol. For the same molecule, the excess molar enthalpy (x2 = 0.09988) was 0.434 ± 0.0083 kJ/mol, the excess molar enthalpy (x2 = 0.1229) was 0.519 ± 0.0096 kJ/mol and the excess molar enthalpy (x2 = 0.2202) was 0.884 ± 0.015 kJ/mol. It also gave an excess molar enthalpy (x2 = 0.2575) of 0.99 ± 0.017 kJ/mol, an excess molar enthalpy (x2 = 0.2709) of 1.02 ± 0.017 kJ/mol and an excess molar enthalpy (x2 = 0.28) of 1.06 ± 0.018 kJ/mol. The excess molar enthalpy (x2 = 0.4232) was 1.29 ± 0.022 kJ/mol, the excess molar enthalpy (x2 = 0.5464) was 1.35 ± 0.022 kJ/mol and the excess molar enthalpy (x2 = 0.6358) was 1.33 ± 0.022 kJ/mol. It also gave an excess molar enthalpy (x2 = 0.7394) of 1.24 ± 0.021 kJ/mol, an excess molar enthalpy (x2 = 0.7753) of 1.18 ± 0.02 kJ/mol and an excess molar enthalpy (x2 = 0.8034) of 1.13 ± 0.019 kJ/mol. It also gave an excess molar enthalpy (x2 = 0.8609) of 0.947 ± 0.016 kJ/mol, an excess molar enthalpy (x2 = 0.9001) of 0.759 ± 0.013 kJ/mol and an excess molar enthalpy (x2 = 0.9286) of 0.602 ± 0.011 kJ/mol. It also gave an excess molar enthalpy (x2 = 0.9571) of 0.401 ± 0.0078 kJ/mol and an excess molar enthalpy (x2 = 0.9821) of 0.192 ± 0.0045 kJ/mol.

`CCCCCCC#N` [heptanenitrile] + CSCS(C)=O showed an excess molar enthalpy (x2 = 0.02045) of 0.0818 ± 0.0028 kJ/mol, an excess molar enthalpy (x2 = 0.05221) of 0.201 ± 0.0047 kJ/mol and an excess molar enthalpy (x2 = 0.08567) of 0.319 ± 0.0065 kJ/mol. It also gave an excess molar enthalpy (x2 = 0.09776) of 0.357 ± 0.0071 kJ/mol, an excess molar enthalpy (x2 = 0.1935) of 0.599 ± 0.011 kJ/mol and an excess molar enthalpy (x2 = 0.2208) of 0.655 ± 0.012 kJ/mol. It also gave an excess molar enthalpy (x2 = 0.2701) of 0.742 ± 0.013 kJ/mol, an excess molar enthalpy (x2 = 0.3893) of 0.87 ± 0.015 kJ/mol and an excess molar enthalpy (x2 = 0.4914) of 0.902 ± 0.016 kJ/mol. It also gave an excess molar enthalpy (x2 = 0.579) of 0.885 ± 0.015 kJ/mol, an excess molar enthalpy (x2 = 0.7478) of 0.714 ± 0.013 kJ/mol and an excess molar enthalpy (x2 = 0.8609) of 0.466 ± 0.0088 kJ/mol. It also gave an excess molar enthalpy (x2 = 0.936) of 0.247 ± 0.0054 kJ/mol, an excess molar enthalpy (x2 = 0.9576) of 0.165 ± 0.0041 kJ/mol and an excess molar enthalpy (x2 = 0.9714) of 0.115 ± 0.0033 kJ/mol.

With `CCCCCCC#N` [heptanenitrile] + C[S+](C)[O-] the excess molar enthalpy (x2 = 0.02225) was 0.0655 ± 0.0026 kJ/mol, the excess molar enthalpy (x2 = 0.07063) was 0.21 ± 0.0048 kJ/mol and the excess molar enthalpy (x2 = 0.08316) was 0.247 ± 0.0054 kJ/mol. The excess molar enthalpy (x2 = 0.119) was 0.341 ± 0.0068 kJ/mol, the excess molar enthalpy (x2 = 0.1747) was 0.484 ± 0.0091 kJ/mol and the excess molar enthalpy (x2 = 0.1851) was 0.516 ± 0.0095 kJ/mol. It also gave an excess molar enthalpy (x2 = 0.2248) of 0.595 ± 0.011 kJ/mol, an excess molar enthalpy (x2 = 0.2423) of 0.64 ± 0.011 kJ/mol and an excess molar enthalpy (x2 = 0.3049) of 0.75 ± 0.013 kJ/mol. The excess molar enthalpy (x2 = 0.3581) was 0.834 ± 0.014 kJ/mol, the excess molar enthalpy (x2 = 0.3605) was 0.843 ± 0.015 kJ/mol and the excess molar enthalpy (x2 = 0.4935) was 0.963 ± 0.016 kJ/mol. For the same molecule, the excess molar enthalpy (x2 = 0.5772) was 0.975 ± 0.017 kJ/mol, the excess molar enthalpy (x2 = 0.6522) was 0.947 ± 0.016 kJ/mol and the excess molar enthalpy (x2 = 0.7056) was 0.896 ± 0.015 kJ/mol. For the same molecule, the excess molar enthalpy (x2 = 0.8946) was 0.477 ± 0.0089 kJ/mol, the excess molar enthalpy (x2 = 0.9545) was 0.23 ± 0.0051 kJ/mol and the excess molar enthalpy (x2 = 0.9792) was 0.112 ± 0.0033 kJ/mol.

In the case of `CCCCCC#N` [hexanenitrile] + CSCS(C)=O, the excess molar enthalpy (x2 = 0.01678) is reported as 0.0542 ± 0.0024 kJ/mol, the excess molar enthalpy (x2 = 0.02979) is reported as 0.104 ± 0.0032 kJ/mol and the excess molar enthalpy (x2 = 0.05841) is reported as 0.197 ± 0.0046 kJ/mol. It also gave an excess molar enthalpy (x2 = 0.07605) of 0.247 ± 0.0054 kJ/mol, an excess molar enthalpy (x2 = 0.1435) of 0.433 ± 0.0083 kJ/mol and an excess molar enthalpy (x2 = 0.1944) of 0.545 ± 0.01 kJ/mol. The excess molar enthalpy (x2 = 0.2184) was 0.591 ± 0.011 kJ/mol, the excess molar enthalpy (x2 = 0.2608) was 0.66 ± 0.012 kJ/mol and the excess molar enthalpy (x2 = 0.3826) was 0.787 ± 0.014 kJ/mol. For the same molecule, the excess molar enthalpy (x2 = 0.4382) was 0.807 ± 0.014 kJ/mol, the excess molar enthalpy (x2 = 0.4785) was 0.811 ± 0.014 kJ/mol and the excess molar enthalpy (x2 = 0.5751) was 0.783 ± 0.014 kJ/mol. For the same molecule, the excess molar enthalpy (x2 = 0.7307) was 0.628 ± 0.011 kJ/mol, the excess molar enthalpy (x2 = 0.8373) was 0.449 ± 0.0085 kJ/mol and the excess molar enthalpy (x2 = 0.9177) was 0.255 ± 0.0055 kJ/mol. The excess molar enthalpy (x2 = 0.9392) was 0.196 ± 0.0046 kJ/mol and the excess molar enthalpy (x2 = 0.9784) was 0.0745 ± 0.0027 kJ/mol.

— the NIST ThermoML archive (doi:10.1021/je0499317)
